PubChem BioAssay AID1963961 (Molecular Pharmacology Branch, DTP, NCI, 2024)
Values belong to the molecule of their own block, whether it stands above or below them.

Tested on: K98450-129-R-PDC multicell spheroids, viability
Experiment: Anticancer human tumor K98450-129-R-PDC patient-derived colon adenocarcinoma cell line growth inhibition [PI3K]
Conditions: for IC50: curve of first compound; for viability, T/C: stronger effect = lower value
In short: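 Three cell types, namely tumor cells, endothelial cells and mesenchymal stem cells, formed each spheroid. Combinations with four PI3K inhibitors were screened at clinically achievable concentrations decreasing by half-log, and spheroid viability was recorded.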

[1] = second compound 0.00316 µM, first compound 0.0316 µM
[2] = second compound 0.00316 µM, first compound 0.1 µM
[3] = second compound 0.00316 µM, first compound 0.316 µM
[4] = second compound 0.00316 µM, first compound 1 µM
[5] = second compound 0.01 µM, first compound 0.0316 µM
[6] = second compound 0.01 µM, first compound 0.1 µM
[7] = second compound 0.01 µM, first compound 0.316 µM
[8] = second compound 0.01 µM, first compound 1 µM
[9] = second compound 0.0316 µM, first compound 0.0316 µM
[10] = second compound 0.0316 µM, first compound 0.1 µM
[11] = second compound 0.0316 µM, first compound 0.316 µM
[12] = second compound 0.0316 µM, first compound 1 µM
[13] = second compound 0.1 µM, first compound 0.0316 µM
[14] = second compound 0.1 µM, first compound 0.1 µM
[15] = second compound 0.1 µM, first compound 0.316 µM
[16] = second compound 0.1 µM, first compound 1 µM
[17] = second compound 0.316 µM, first compound 0.0316 µM
[18] = second compound 0.316 µM, first compound 0.1 µM
[19] = second compound 0.316 µM, first compound 0.316 µM
[20] = second compound 0.316 µM, first compound 1 µM
[21] = second compound 1 µM, first compound 0.0316 µM
[22] = second compound 1 µM, first compound 0.1 µM
[23] = second compound 1 µM, first compound 0.316 µM
[24] = second compound 1 µM, first compound 1 µM
[25] = second compound 0.00316 µM, first compound 3.16 µM
[26] = second compound 0.00316 µM, first compound 10 µM
[27] = second compound 0.01 µM, first compound 3.16 µM
[28] = second compound 0.01 µM, first compound 10 µM
[29] = second compound 0.0316 µM, first compound 3.16 µM
[30] = second compound 0.0316 µM, first compound 10 µM
[31] = second compound 0.1 µM, first compound 3.16 µM
[32] = second compound 0.1 µM, first compound 10 µM
[33] = second compound 0.316 µM, first compound 3.16 µM
[34] = second compound 0.316 µM, first compound 10 µM
[35] = second compound 1 µM, first compound 3.16 µM
[36] = second compound 1 µM, first compound 10 µM
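Also: spheroids exposed to agents for seven days before read-out.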

IC50 (second compound 0.00316 µM): > 1 µM
IC50 (second compound 0.01 µM): > 1 µM
IC50 (second compound 0.0316 µM): > 1 µM
IC50 (second compound 0.1 µM): > 1 µM
IC50 (second compound 0.316 µM): > 1 µM
IC50 (second compound 1 µM): < 0.00316 µM
Structure (SMILES): CCN1CCN(Cc2ccc(Nc3ncc(F)c(-c4cc(F)c5nc(C)n(C(C)C)c5c4)n3)nc2)CC1 + COc1c(OCCCN2CCOCC2)ccc2c3n(c(=NC(=O)c4cnc(N)nc4)nc12)CCN3
viability, T/C (second compound 0.00316 µM, first compound 0.00316 µM): 99.6%
viability, T/C (second compound 0.00316 µM, first compound 0.01 µM): 108%
viability, T/C [1]: 88.9%
viability, T/C [2]: 86.9%
viability, T/C [3]: 87.5%
viability, T/C [4]: 79.4%
viability, T/C (second compound 0.01 µM, first compound 0.00316 µM): 117%
viability, T/C (second compound 0.01 µM, first compound 0.01 µM): 93.7%
viability, T/C [5]: 81.6%
viability, T/C [6]: 94%
viability, T/C [7]: 71.1%
viability, T/C [8]: 75.8%
viability, T/C (second compound 0.0316 µM, first compound 0.00316 µM): 78.3%
viability, T/C (second compound 0.0316 µM, first compound 0.01 µM): 64.5%
viability, T/C [9]: 81.9%
viability, T/C [10]: 66.8%
viability, T/C [11]: 72.8%
viability, T/C [12]: 110%
viability, T/C (second compound 0.1 µM, first compound 0.00316 µM): 71.6%
viability, T/C (second compound 0.1 µM, first compound 0.01 µM): 64.9%
viability, T/C [13]: 85.6%
viability, T/C [14]: 57.3%
viability, T/C [15]: 64.2%
viability, T/C [16]: 70.7%
viability, T/C (second compound 0.316 µM, first compound 0.00316 µM): 53.1%
viability, T/C (second compound 0.316 µM, first compound 0.01 µM): 64.6%
viability, T/C [17]: 57.3%
viability, T/C [18]: 46.2%
viability, T/C [19]: 64.7%
viability, T/C [20]: 60%
viability, T/C (second compound 1 µM, first compound 0.00316 µM): 56%
viability, T/C (second compound 1 µM, first compound 0.01 µM): 45%
viability, T/C [21]: 45.8%
viability, T/C [22]: 47.8%
viability, T/C [23]: 59.8%
viability, T/C [24]: 65.2%

IC50 (second compound 0.00316 µM): > 10 µM
IC50 (second compound 0.01 µM): > 10 µM
IC50 (second compound 0.0316 µM): > 10 µM
IC50 (second compound 0.1 µM): > 10 µM
IC50 (second compound 0.316 µM): > 10 µM
IC50 (second compound 1 µM): > 10 µM
Structure (SMILES): Cn1ncc(Cl)c1-c1cc(C(=O)NC(CN)Cc2cccc(F)c2)sc1Cl (stereo unspecified) + COc1c(OCCCN2CCOCC2)ccc2c3n(c(=NC(=O)c4cnc(N)nc4)nc12)CCN3
viability, T/C [1]: 112%
viability, T/C [2]: 101%
viability, T/C [3]: 99.2%
viability, T/C [4]: 98.8%
viability, T/C [25]: 89.2%
viability, T/C [26]: 63.9%
viability, T/C [5]: 117%
viability, T/C [6]: 103%
viability, T/C [7]: 103%
viability, T/C [8]: 83.5%
viability, T/C [27]: 78.9%
viability, T/C [28]: 76%
viability, T/C [9]: 86.9%
viability, T/C [10]: 99.8%
viability, T/C [11]: 90.9%
viability, T/C [12]: 78.9%
viability, T/C [29]: 89%
viability, T/C [30]: 58.5%
viability, T/C [13]: 72.4%
viability, T/C [14]: 70.4%
viability, T/C [15]: 78.9%
viability, T/C [16]: 83.3%
viability, T/C [31]: 69.5%
viability, T/C [32]: 70.3%
viability, T/C [17]: 64.6%
viability, T/C [18]: 68.4%
viability, T/C [19]: 70.6%
viability, T/C [20]: 47.8%
viability, T/C [33]: 80.4%
viability, T/C [34]: 51%
viability, T/C [21]: 52.4%
viability, T/C [22]: 71.5%
viability, T/C [23]: 48.7%
viability, T/C [24]: 65.7%
viability, T/C [35]: 59.8%
viability, T/C [36]: 41.7%

IC50 (second compound 0.00316 µM): > 10 µM
IC50 (second compound 0.01 µM): > 10 µM
IC50 (second compound 0.0316 µM): > 10 µM
IC50 (second compound 0.1 µM): 7.85 µM
IC50 (second compound 0.316 µM): 8.33 µM
IC50 (second compound 1 µM): 0.272 µM
Structure (SMILES): Cn1nccc1Nc1nccc(-c2ccn(C(CO)c3ccc(Cl)c(F)c3)c(=O)c2)n1 (stereo unspecified) + COc1c(OCCCN2CCOCC2)ccc2c3n(c(=NC(=O)c4cnc(N)nc4)nc12)CCN3
viability, T/C [1]: 101%
viability, T/C [2]: 97.7%
viability, T/C [3]: 89.3%
viability, T/C [4]: 88.5%
viability, T/C [25]: 93.6%
viability, T/C [26]: 69.2%
viability, T/C [5]: 99.1%
viability, T/C [6]: 82%
viability, T/C [7]: 79.7%
viability, T/C [8]: 79.9%
viability, T/C [27]: 77.4%
viability, T/C [28]: 95.5%
viability, T/C [9]: 80.7%
viability, T/C [10]: 88.6%
viability, T/C [11]: 74.8%
viability, T/C [12]: 94.6%
viability, T/C [29]: 77.3%
viability, T/C [30]: 63.1%
viability, T/C [13]: 65.6%
viability, T/C [14]: 74.8%
viability, T/C [15]: 73.3%
viability, T/C [16]: 75.3%
viability, T/C [31]: 70.2%
viability, T/C [32]: 44.5%
viability, T/C [17]: 63.2%
viability, T/C [18]: 53.7%
viability, T/C [19]: 55.6%
viability, T/C [20]: 61.9%
viability, T/C [33]: 59.7%
viability, T/C [34]: 40.8%
viability, T/C [21]: 54.7%
viability, T/C [22]: 61.5%
viability, T/C [23]: 43.2%
viability, T/C [24]: 43.9%
viability, T/C [35]: 33.4%
viability, T/C [36]: 20.9%
